{"source": "patent US11110070B2", "about": "(priority 2015, dated 2021)", "key": {"129S6/SvEvTac mice [1]": {"test_system": "129S6/SvEvTac mice", "assay": "1-shock contextual fear conditioning (CFC) in SD experiments", "assay_type": "in vivo", "settings": "ketamine after SD", "method": "The 1-shock CFC procedure was performed as previously published (A15). Briefly, mice were placed into context A and administered a 2-s shock (0.75 mA) 180 s later. Mice were removed from the context 15 s following the termination of shock (at 197 s). For context retrieval, mice were placed back into context A for 180 s. For alternate contexts, mice were placed into the contexts for 180 s."}, "patients with MDD": {"test_system": "patients with MDD", "settings": "cited from earlier work"}, "[2]": {"test_system": "adult hippocampal neurogenesis", "assay": "Doublecortin and Ki67 immunohistochemistry, dentate gyrus", "assay_type": "in vivo, mice", "settings": "for number of Ki67+ cells: ketamine vs saline (FIG. 6K)", "method": "Mice were deeply anesthetized with ketamine (100 mg kg) and transcardially perfused with IX phosphate buffer saline (PBS), followed by chilled 4% paraformaldehyde (PFA)/IX PBS (A15), Brains were post-fixed overnight in 4% PFA at 4° C., then cryoprotected in 30% sucrose/1× PBS, and stored at 4° C. Serial coronal sections (35 μm) were cut through the entire hippocampus on a cryostat and stored in IX PBS with 0.1% NaN3. Doublecortin (DCX) immunohistochemistry was performed as previously described (A15). For DCX immunohistochemistry, sections were washed in 1× PBS containing 0.5% Triton and then quenched in 0.3% H2O2 in IX PBS/CH3OH (1:1) for 15 min at room temperature. Sections were blocked in 10% normal donkey serum in 1× PBS with 0.5% Triton X-100 for 2 h at room temperature. Incubation with primary antibody was performed at 4° C. overnight (goat anti-DCX, 1:500, Santa Cruz Biotechnology, Santa Cruz, Calif., #SC 8,066) in 1× PBS with 0.5% Triton X-100. Sections were then incubated with a biotinylated secondary antibody (donkey anti-goat; 1:250, Jackson lmmunoResearch, West Grove, Pa.) for 2 h at room temperature. Sections were treated with avidin-biotin-peroxidase complex (ABC Elite Kit, Vector Labs, Burlingame, Calif.) followed by 3,3′ diaminobenzidine as a substrate for staining (Vector, Burlingame, Calif.).\nKi67 immunohistochemistry was performed as previously described (A16). For Ki67 immunohistochemistry, sections were washed in 1× PBS containing 0.5% Triton, and then blocked in 10% normal donkey serum in 1× PBS with 0.5% Triton X-100 for 2 h at room temperature. Incubation with primary antibody was performed at 4° C. overnight (rabbit anti-Ki67, 1:100, Vector Laboratories. Burlingame, Calif., #VP-RM04) in 1× PBS with 0.5% Triton X-100. Sections were then incubated with a biotinylated secondary antibody (donkey anti-rabbit; 1:250, Jackson ImmunoResearch, West Grove, Pa.) for 2 h at room temperature. Sections were treated with avidin-biotin-peroxidase complex (ABC Elite Kit, Vector Labs, Burlingame, Calif.) followed by 3,3′ diaminobenzidine as a substrate for staining (Vector, Burlingame, Calif.).\nAn investigator blind to treatment used a Zeiss Axioplan-2 upright microscope (Oberkochen, Germany) to count cells bilaterally in the granule cell layer of the dentate gyms throughout the entire rostra-caudal axis of the hippocampus (HPC). Every sixth section throughout the entire extent of the HPC was included in the analysis. Cells were counted bilaterally using a 20× objective. The average cells per section are presented throughout the text."}, "129S6/SvEvTac mice [3]": {"test_system": "129S6/SvEvTac mice", "assay": "3-shock CFC, extinction and reinstatement paradigm", "assay_type": "in vivo", "method": "A single injection of saline (0.9% NaCl) far ketamine (30 mg kg^−1) (Ketaset III, Ketamine HCl injection, Fort Dodge Animal Health, Forth Dodge, Iowa) was administered once during the course of each experiment.\nA 3-shock CFC paradigm was administered as previously described (Drew et al., 2010; Denny et al., 2014). Mice were placed in the conditioning chamber and received 3 shocks 180, 240, and 300 s later (2 s, 0.75 mA) and were removed 15 s following the last shock. All sessions were scored for freezing using FreezeView2http://actimetrics.com/downloads/freezeframe/).\nExtinction began 4 days after the initial 3-shock CFC procedure, or 4 days after the reinstatement procedure. Each group of mice was subjected to 2 extinction trials per day. Each extinction trial lasted 30 min, with an intertrial interval of at least 2 h. For each extinction trial, mice were placed in the same box used for CFC without receiving foot shocks. All trials were scored for freezing. The freezing presented throughout the text represents averaged freezing behavior for the first 3 min of each extinction trial.\nReinstatement took place in the same Coulbourn fear conditioning box, but with altered cues. A 1-shock CFC paradigm was administered as previously described (Drew et al., 2010; Denny et al., 2012; Denny et al., 2014), with the exception of two experiments in which the mice were administered 3 shocks."}, "[4]": {"settings": "ketamine 1 week before CFC, vs saline"}}, "note": "Entries after “also recorded” stand apart in the source; their conditions may differ.", "data": [{"smiles": "CNC1(c2ccccc2Cl)CCCCC1=O", "note": "(racemic) [ketamine, (RS)-2-(2-chlorophenyl)-2-(methylamino)cyclohexanone]", "values": [{"measurement": "CFC learning (freezing)", "setting": "129S6/SvEvTac mice [1]", "value": "did not impact CFC learning; also recorded: comparable levels of freezing"}, {"measurement": "duration of sustained effects following the infusion", "setting": "patients with MDD; in vivo", "value": "1-2 weeks"}, {"measurement": "time to antidepressant effects following a single injection", "setting": "patients with MDD; patients with MDD", "value": 2, "unit": "h"}, {"measurement": "number of Ki67+ cells", "setting": "[2]; Ctrl mice", "value": "increases"}, {"measurement": "number of Ki67+ cells", "setting": "[2]; SD mice", "value": "not in SD mice"}, {"measurement": "number of Ki67 cells in the dentate gyrus", "setting": "[2]; ketamine administered after SD", "value": "significantly increases the number of Ki671 cells"}, {"measurement": "DCX levels", "setting": "[2]; ketamine in post-SD design (FIG. 6L)", "value": "does not alter DCX levels"}, {"measurement": "adult hippocampal neurogenesis (levels of doublecortin and Ki67)", "setting": "[2]; prophylactic ketamine before SD", "value": "did not observe an effect"}, {"measurement": "freezing during 3-shock CFC training", "setting": "129S6/SvEvTac mice [3]; ketamine 30 mg kg^−1 1 week before CFC, vs saline", "value": "comparable levels of freezing"}, {"measurement": "fear response (freezing) during CFC training", "setting": "129S6/SvEvTac mice [3]; ketamine 1 month before CFC", "value": "did not result in a decreased fear response"}, {"measurement": "freezing behavior during extinction", "setting": "129S6/SvEvTac mice [3]; ketamine 1 month before CFC", "value": "did not alter freezing behavior during extinction"}, {"measurement": "fear, first trial of extinction vs first trial of re-extinction (E1 vs. E9)", "setting": "129S6/SvEvTac mice [3]; [4]", "value": "significantly decreased levels of fear"}, {"measurement": "freezing during the first extinction exposure", "setting": "129S6/SvEvTac mice [3]; [4]", "value": "significantly less freezing behavior"}, {"measurement": "fear expression during extinction training", "setting": "129S6/SvEvTac mice [3]; ketamine 1 week following CFC, 1 week prior to extinction", "value": "did not alter fear expression during extinction training; also recorded: equal levels of freezing behavior during all extinction trials"}, {"measurement": "subsequent fear expression (reinstatement, secondary extinction)", "setting": "129S6/SvEvTac mice [3]; ketamine 1 week prior to 1-shock reinstatement (24 h after the last extinction trial)", "value": "did not alter subsequent fear expression; also recorded: equal levels of freezing behavior during reinstatement and during secondary extinction trials"}, {"measurement": "fear expression (reinstatement, secondary extinction)", "setting": "129S6/SvEvTac mice [3]; ketamine 1 week prior to 3-shock reinstatement", "value": "did not alter fear expression; also recorded: comparable levels of fear behavior"}, {"measurement": "fear expression during the first re-exposure", "setting": "129S6/SvEvTac mice [3]; ketamine 1 h after 3-shock reinstatement", "value": "buffered fear expression during the first re-exposure"}, {"measurement": "freezing throughout secondary extinction", "setting": "129S6/SvEvTac mice [3]; ketamine 1 h after 3-shock reinstatement, vs saline", "value": "transiently decreased freezing throughout extinction; also recorded: decreased fear"}, {"measurement": "freezing during extinction", "setting": "129S6/SvEvTac mice [3]; ketamine 1 h before CFC", "value": "froze comparably during extinction; also recorded: equal levels of freezing behavior during almost all extinction trials"}, {"measurement": "subsequent fear expression (secondary extinction trials)", "setting": "129S6/SvEvTac mice [3]; ketamine 1 h following 1-shock reinstatement", "value": "did not alter subsequent fear expression; also recorded: comparable levels of fear behavior during secondary extinction trials"}, {"measurement": "fear expression during extinction", "setting": "129S6/SvEvTac mice [3]; ketamine 1 h following 3-shock CFC training", "value": "did not alter fear expression during extinction; also recorded: equal levels of freezing behavior during all extinction trials"}, {"measurement": "fear expression during extinction training", "setting": "129S6/SvEvTac mice [3]; ketamine 1 h prior to extinction", "value": "did not alter fear expression during extinction training; also recorded: equal levels of freezing behavior during all extinction trials"}, {"measurement": "freezing behavior during extinction", "setting": "129S6/SvEvTac mice [3]; ketamine 24 h before CFC", "value": "did not alter"}, {"measurement": "subsequent fear expression (secondary extinction trials)", "setting": "129S6/SvEvTac mice [3]; ketamine 24 h following 3-shock reinstatement", "value": "did not alter subsequent fear expression; also recorded: comparable levels of freezing behavior"}]}]}
